{"source": "patent US6476010B2", "about": "“Method for increasing intestinal absorption of fat soluble vitamins in post-menopausal women and lower animals” (Hill's Pet Nutrition, priority 2000, dated 2002)", "key": {"[1]": {"system": "ovariectomized rats", "assay": "Liver levels and biliary secretion of α-tocopherol after 8 weeks of dietary carnitine (bile duct cannulation)", "type": "in vivo, rat", "experimental": "Thirty two 10 weeks old female Sprague-Dawley rats weighing 214±6 g (Harlan Sprague Dawley, Indianapolis, Ind.) were placed individually in plastic cages with stainless steel wire-bottoms in a windowless room at a controlled temperature of about 23° C. and subjected to a light-dark cycle with the light period from 3:30 pm to 3:30 am and the dark period from 3:30 am to 3:30 pm. The rats were acclimatized for 1 week with free access to the deionized water and ad libitum fed a zinc-adequate AIN-93G diet (Reeves et al., J Nutr 1993;123:1939-1951) formulated by Dyets, Inc. (Bethlehem, Pa., USA) with 7% soybean oil as a fat source. Zinc carbonate was added to provide the desired levels of zinc. At the end of the first week, at the average body weight of 230±12 g, the rats were ovariectomized under halothane anesthesia after 16 hours of fasting. Initial blood samples (week 0) were taken from 5 randomly selected rats. After 1 week of postoperative recovery, rats were divided into the following two experimental groups by matching body weight: One group of rats was fed a zinc-adequate AIN-93G diet containing α-tocopherol-stripped soybean oil; 150 ppm Sipernat® 50, which is hydrated silica available from Degussa Corporation, Ridgefield, N.J.; and supplemented with 150 mg/kg L-carnitine. A control group was fed the same diet, except that the 150 mg/kg of L-carnitine was substituted with 150 ppm of α-D-glucose. The normal food intake for both groups was around 15 g/day/rat. Blood samples were taken at the beginning of 1, 3, 5, 8 weeks from 5 randomly selected rats in each group. At the end of the 8th week, bile duct cannulation was performed on the rats in both groups having an average body weight of about 340±15 g. Cannulation of the common bile duct was performed, following 16 hours food deprivation, as described previously (Noh et al., J Nutr Biochem 1999;10:110-117). Briefly, after performing a midline abdominal incision, the common bile duct was cannulated with PE-10 tubing (Clay Adams, Sparks, Md.) under halothane anesthesia (2.0% halothane in 2.01 oxygen/min). A silicone feeding catheter (Silastic medical grade tubing, Dow Coming, Midland, Mich.) was inserted into the gastric fundus region. The infusion catheter was exteriorized alongside the bile cannula through the right flank. Cannulated rats were placed in individual restraining cages and allowed to recover for at least 20 hours in a warm recovery chamber kept at about 30° C. Immediately after surgery, glucose-phosphate buffered saline (PBS) (in mmol/l: 277 glucose, 6.75 Na2HPO4, 16.5 NaH2PO4, 115 NaCl, and 5 KCI; pH 6.7) was continuously infused through the duodenal cannula at 3.0 ml/h via a syringe pump (Harvard Apparatus, Model 935, South Natick, Mass.). After postoperative recovery, rats were infused with a lipid emulsion containing 565 μmol triolein (95%, Sigma Chemical, St. Louis, Mo.), and 396 μmol sodium taurocholic acid in 24 ml of PBS. Bile was collected hourly for 8 hours in pre-weighed conical centrifuge tubes containing 30 μg of n-propyl gallate in ice filled beakers. After bile collection, the rats were killed by cervical dislocation, and the livers were dissected. The samples were stored at about −70° C. until analysis. Lipids were extracted by Folch's method (Folch et al., J Biol Chem 1957;226:497-509). The content of α-tocopherol was determined as described by Zaspel et al. (Anal. Biochem. 1983;130:146-150). […]"}, "[2]": {"system": "ovariectomized rats", "assay": "Lymphatic absorption of α-tocopherol after 5 weeks of dietary carnitine (mesenteric lymph duct cannulation)", "type": "in vivo, rat", "details": "carnitine supplemented diet for 5 weeks", "experimental": "Thirty two 10 weeks old female Sprague-Dawley rats weighing 208±8 g (Harlan Sprague Dawley, Indianapolis, Ind.) were housed and fed as described in Example 1. At the end of second week, at the average body weight of 240±9 g, the rats were ovariectomized under halothane anesthesia after 16 hours fasting. Initial (0 week) blood samples were taken from 6 randomly selected rats.\nImmediately after surgery, rats were divided into the following two experimental groups as described in Example 1, i.e., one group was fed a diet supplemented with carnitine, and one control group. The normal food intake for both groups was about 15-16 g/day/rat.\nAt the end of the 5th week, Lymph duct cannulation was performed on each group having an average body weight of 340±15 g. Cannulation of the mesenteric lymph duct was performed, following 16 hours food deprivation, as described previously (Noh et al., supra). Briefly, after a midline abdominal incision was performed, the mesenteric lymph duct was cannulated with polyethylene tubing (SV 31 tubing, Dural Plastics, Auburn, Australia) by securing with a drop of cyanoacrylate glue (Krazy Glue, Columbus, Ohio) under halothane anesthesia (2.0% halothane in 2.01 oxygen/min). A silicone feeding catheter (Silastic medical grade tubing, Dow Coming, Midland, Mich.) was inserted into the gastric fundus region. The infusion catheter was exteriorized alongside the lymph cannula through the right flank. Cannulated rats were placed in individual restraining cages and allowed to recover for at least 20 hours in a warm recovery chamber kept at about 30° C. Immediately following surgery, glucose-phosphate buffered saline (PBS) (in mmol/l: 277 glucose, 6.75 Na2HPO4, 16.5 NaH2PO4, 115 NaCl, and 5 KCI; pH 6.7) was continuously infused through the duodenal cannula at 3.0 ml/h via a syringe pump (Harvard Apparatus, Model 935, South Natick, Mass.).\nAfter postoperative recovery, rats were infused with a lipid emulsion containing 1 μCi of [carboxyl-^14C]-triolein (specific activity 112.0 mCi/mmol, DuPont NEN, Boston, Mass.), 565 μmol triolein (95%, Sigma Chemical, St. Louis, Mo.), 3.56 μmol α-tocopherol (all-rac-a-tocopherol, 97%, Aldrich Chemical, Milwaukee, Wis.), and 396 μmol sodium taurocholic acid in 24 ml of PBS. Lymph was collected hourly for 8 hours in pre-weighed conical centrifuge tubes containing 30 μg of n-propyl gallate and 4 mg of Na2EDTA in ice-filled beakers. After lymph collection, the rats were killed by cervical dislocation, and the livers were collected. The samples were stored at about −70° C. until analysis.\nFrom the lipid extracted (Folch et al., supra), tissue total phospholipid was measured colorimetrically by the method of Reheja et al. (J Lipid Res 1973;14:695-697). Tissue total cholesterol was determined as described by Rudel et al. (J Lipid Res 1973;21:364-366). Alpha-tocopherol was determined as described by Zaspel et al (supra) and in Example 1 above. Statistical analyses were conducted as described in Example 1."}, "[3]": {"details": "significant difference vs control"}}, "data": [{"molecule": "C[N+](C)(C)C[C@H](O)CC(=O)[O-]", "note": "[carnitine, L-carnitine]", "values": [{"measurement": "α-tocopherol concentration per 100 mg total lipid", "setting": "[1]; liver, ovariectomized rats fed a carnitine supplemented diet, compared with control", "value": "significantly higher"}, {"measurement": "bile flow", "setting": "[1]; ovariectomized Sprague-Dawley rats, diet with 150 mg/kg L-carnitine for 8 weeks, bile collected for 8 hours, no difference vs control, mean±SD", "value": "7.9±1.4", "unit": "ml/8 hours"}, {"measurement": "biliary secretion of α-tocopherol for 8 hours", "setting": "[1]; ovariectomized rats, diet with 150 mg/kg L-carnitine for 8 weeks, P<0.05 vs control, mean±SD", "value": "53.1 ± 9.3", "unit": "nmol"}, {"measurement": "ratio of liver α-tocopherol/phospholipid", "setting": "[1]; ovariectomized rats, diet with 150 mg/kg L-carnitine for 8 weeks, P=0.001 vs control", "value": "4.8±0.6", "unit": "nmol/μmol"}, {"measurement": "liver concentration of α-tocopherol", "setting": "[1]; ovariectomized rats, diet with 150 mg/kg L-carnitine for 8 weeks, significantly elevated vs control", "value": "129.6 ± 19.5", "unit": "nmol/g"}, {"measurement": "lymphatic absorption of α-tocopherol for 8 hours", "setting": "[2]; lipid emulsion with 3.56 μmol α-tocopherol infused, P<0.05 vs control", "value": "899±200", "unit": "nmol/8 h"}, {"measurement": "lymph flow", "setting": "[2]; lymph collected for 8 hours, no difference vs control", "value": "22.6±4.2", "unit": "ml/8 hours"}, {"measurement": "absorption of 14C-triolein", "setting": "[2]; lymph for 8 hours, P<0.05 vs control", "value": "53.5±4.0", "unit": "% dose"}, {"measurement": "ratio of lymph α-tocopherol/cholesterol", "setting": "[2]; [3]", "value": "82.7±17.1", "unit": "nmol/μmol"}, {"measurement": "ratio of lymph α-tocopherol/phospholipid", "setting": "[2]; [3]", "value": "46.9±8.8", "unit": "nmol/μmol"}]}]}
